Here are results for eight compounds from ChEMBL document CHEMBL5584218, “Design and synthesis of unique morphinan-type molecules: Their application to the search for the unexplored binding domain between opioid receptors and morphinan ligands” (Bioorg Med Chem Lett, 2024).

The pKi is −log10 of the Ki, conventionally taken in molar units.

Common to all, as to format: cell membranes
The target in assay [1] is Mu-type opioid receptor (Homo sapiens, UniProt P35372). Nature of the assay: Displacement of [3H]-DAMGO from human MOR extracted from HEK293 cell membrane assessed as inhibition constant. In general terms: Displacement assays read how much labelled ligand stays bound in the presence of the test substance.
Mu-type opioid receptor, sequence (P35372 whole entry): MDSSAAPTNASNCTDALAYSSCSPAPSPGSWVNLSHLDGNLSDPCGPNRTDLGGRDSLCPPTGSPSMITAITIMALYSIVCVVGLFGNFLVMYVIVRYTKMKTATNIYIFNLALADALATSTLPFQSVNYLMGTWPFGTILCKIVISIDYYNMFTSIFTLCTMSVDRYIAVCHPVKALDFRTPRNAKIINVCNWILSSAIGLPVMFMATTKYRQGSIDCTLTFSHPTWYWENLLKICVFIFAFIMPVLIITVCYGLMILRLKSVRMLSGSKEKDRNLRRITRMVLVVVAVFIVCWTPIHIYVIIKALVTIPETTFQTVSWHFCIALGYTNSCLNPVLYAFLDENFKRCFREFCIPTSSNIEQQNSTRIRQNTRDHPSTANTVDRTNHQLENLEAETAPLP
The target in assay [2] is Delta-type opioid receptor (Homo sapiens, UniProt P41143). Nature of the assay: Displacement of [3H]DPDPE from human DOR extracted from HEK293 cell membrane assessed as inhibition constant.
Delta-type opioid receptor, sequence (P41143 whole entry): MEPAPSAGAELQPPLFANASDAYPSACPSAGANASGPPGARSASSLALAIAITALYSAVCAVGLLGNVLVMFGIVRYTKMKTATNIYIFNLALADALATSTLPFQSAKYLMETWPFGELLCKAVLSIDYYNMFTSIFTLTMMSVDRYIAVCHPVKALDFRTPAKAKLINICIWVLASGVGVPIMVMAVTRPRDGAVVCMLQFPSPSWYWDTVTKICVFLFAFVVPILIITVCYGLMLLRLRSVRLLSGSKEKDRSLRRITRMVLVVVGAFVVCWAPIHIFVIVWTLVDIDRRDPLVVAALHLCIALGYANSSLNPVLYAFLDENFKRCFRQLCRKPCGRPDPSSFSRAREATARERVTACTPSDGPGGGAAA
Assay [3] has as its target Kappa-type opioid receptor (Homo sapiens, UniProt P41145). Nature of the assay: Displacement of [3H]U-69593 from human KOR extracted from HEK293 cell membrane assessed as inhibition constant.

Molecules are shown by their SMILES. pKi: −log10 of the molar value.

Kappa-type opioid receptor, sequence (P41145 whole entry): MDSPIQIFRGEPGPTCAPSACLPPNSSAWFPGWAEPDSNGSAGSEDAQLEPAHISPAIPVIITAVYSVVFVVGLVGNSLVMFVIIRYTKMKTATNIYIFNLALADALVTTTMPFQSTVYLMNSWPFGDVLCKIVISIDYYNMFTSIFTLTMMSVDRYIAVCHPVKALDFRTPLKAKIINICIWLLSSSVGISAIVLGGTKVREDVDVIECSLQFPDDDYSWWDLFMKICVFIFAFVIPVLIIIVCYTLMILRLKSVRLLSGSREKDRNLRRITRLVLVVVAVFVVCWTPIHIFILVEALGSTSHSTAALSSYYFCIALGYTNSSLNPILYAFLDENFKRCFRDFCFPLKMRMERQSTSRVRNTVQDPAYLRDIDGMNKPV

On to `CC(=O)/C=C1/NC2Cc3ccc(O)c4c3[C@]35CCN1[C@]23CCC(=O)C5O4` (some centres undefined), for which the pKi is 6.42 in assay [1], less than 5.00 in assay [2] and 6.51 in assay [3].
Take `CN1CN2CC[C@]34c5c6ccc(O)c5OC3C(=O)CC[C@]24C1C6` (some centres undefined): the values for the negative-log Ki (pKi) in assay [1], in assay [2] and in assay [3] were 6.82, 6.80 and 6.51, respectively.
In the same order, the values of `O=C1CC[C@]23C4[C@@H](CN(CC5CC5)C[N@@]42)[C@]32c3cccc(O)c3OC12` (some centres undefined) are 7.70, 7.19 and 7.68.
On the same counts, the results for `C[C@@H](O)C[C@H]1NC2Cc3ccc(O)c4c3[C@]35CCN1[C@]23CCC(=O)C5O4` (some centres undefined) are 7.16, 6.21 and 6.41.
For `CC(=O)C(C(C)=O)=C1N(CC2CC2)C2Cc3ccc(O)c4c3[C@]35CCN1[C@]23CCC(=O)C5O4` (some centres undefined), the negative logarithm of the Ki (pKi) is 6.16 in assay [1], 5.89 in assay [2] and 5.85 in assay [3].
Consider `C[C@H](O)C[C@H]1NC2Cc3ccc(O)c4c3[C@]35CCN1[C@]23CCC(=O)C5O4` (some centres undefined), for which the pKi is 7.24 in assay [1], 6.49 in assay [2] and 6.92 in assay [3].
In the case of `O=C1CC[C@@]23C4Cc5ccc(O)c6c5[C@@]2(CCN3CN4CCc2ccccc2)C1O6` (some centres undefined), the pKi is 7.66 in assay [1], 7.60 in assay [2] and 8.28 in assay [3].
As to `N[C@@]12CCC(=O)C3Oc4c(O)ccc5c4[C@@]31CCN(CC1CC1)C2C5` (some centres undefined), the pKi is 9.09 in assay [1], 7.72 in assay [2] and 8.74 in assay [3].
